Test results from ChEMBL document CHEMBL4828727, “Antibacterial and antitumoral properties of 1,2,3-triazolo fused triterpenes and their mechanism of inhibiting the proliferation of HL-60 cells” (Eur J Med Chem, 2021).

Key:
HL-60 [1] = test: Induction of apoptosis in human HL-60 cells assessed as early apoptotic cells at 10 uM in presence of 3-MA after 48 hrs by Annexin V-PE/7-AAD dual staining based flow cytometry (reference value: 3.14%); format: functional
HL-60 [2] = test: Induction of apoptosis in human HL-60 cells assessed as live cells at 8 uM in presence of 3-MA after 48 hrs by Annexin V-PE/7-AAD dual staining based flow cytometry (reference value: 91.1%); format: functional
HL-60 [3] = test: Induction of apoptosis in human HL-60 cells assessed as early apoptotic cells at 6 uM in presence of 3-MA after 48 hrs by Annexin V-PE/7-AAD dual staining based flow cytometry (reference value: 3.14%); format: functional
HL-60 [4] = test: Induction of apoptosis in human HL-60 cells assessed as necrotic cells at 10 uM after 48 hrs by Annexin V-PE/7-AAD dual staining based flow cytometry (reference value: 2.64 to 3.64%); format: functional
HL-60 [5] = test: Induction of autophagy in human HL-60 cells assessed as fold increase in MDC fluorescence intensity at 10 uM measured after 48 hrs by flow cytometry relative to control; format: functional
HL-60 [6] = test: Cell cycle arrest in human HL-60 cells assessed as increase in accumulation in G0/G1 phase at 6 uM incubated for 48 hrs by propidium iodide staining based flow cytometric analysis (reference value: 64.97%); format: functional
HL-60 [7] = test: Induction of apoptosis in human HL-60 cells assessed as live cells at 6 uM in presence of 3-MA after 48 hrs by Annexin V-PE/7-AAD dual staining based flow cytometry (reference value: 91.1%); format: functional
HL-60 [8] = test: Cell cycle arrest in human HL-60 cells assessed as decrease in accumulation in S phase at 6 uM incubated for 48 hrs by propidium iodide staining based flow cytometric analysis (reference value: […]); format: functional; parameters: scale not given: the % may be the effect or the level left
K562 = test: cells; format: functional, cell-based; settings: Homo sapiens, K562, 72 h
Description: Antiproliferative activity against human K562 cells assessed as inhibition of cell viability measured after 72 hrs by real-time IncuCyte proliferation analysis

HL-60 [9] = test: Cell cycle arrest in human HL-60 cells assessed as decrease in accumulation in S phase at 10 uM incubated for 48 hrs by propidium iodide based flow cytometric analysis (reference value: 28.42%); format: functional; parameters: scale not given: the % may be the effect or the level left
HL-60 [10] = test: Induction of autophagy in human HL-60 cells assessed as fold increase in MDC fluorescence intensity at 6 uM measured after 48 hrs by flow cytometry relative to control; format: functional
HL-60 [11] = test: Cell cycle arrest in human HL-60 cells assessed as accumulation of cells at G2/M phase at 8 uM incubated for 48 hrs by propidium iodide based flow cytometric analysis (reference value: 6.61%); format: functional
LN-229 = test: Antiproliferative activity against human LN-229 cells assessed as inhibition of cell viability measured after 72 hrs by colorimetric MTS viability assay; format: functional, cell-based; settings: LN-229, 72 h
HL-60 [12] = test: Induction of apoptosis in human HL-60 cells assessed as late apoptotic cells at 6 uM after 48 hrs by Annexin V-PE/7-AAD dual staining based flow cytometry (reference value: 3.93%); format: functional
Jurkat = test: cells; format: functional, cell-based; settings: Homo sapiens, 72 h
Description: Cytotoxicity against human Jurkat cells assessed as inhibition of cell viability measured after 72 hrs by real-time IncuCyte proliferation analysis

HL-60 [13] = test: Induction of mitochondrial membrane potential loss in human HL-60 cells at 8 uM after 48 hrs by JC-1 staining based flow cytometry (reference value: 3.49%); format: functional
HL-60 [14] = test: Induction of apoptosis in human HL-60 cells assessed as late apoptotic cells at 6 uM in presence of 3-MA after 48 hrs by Annexin V-PE/7-AAD dual staining based flow cytometry (reference value: 3.12%); format: functional
HL-60 [15] = test: Cell cycle arrest in human HL-60 cells assessed as accumulation of cells at G2/M phase at 10 uM incubated for 48 hrs by propidium based flow cytometric analysis (reference value: 6.61%); format: functional
HL-60 [16] = test: Induction of apoptosis in human HL-60 cells assessed as early apoptotic cells at 10 uM after 48 hrs by Annexin V-PE/7-AAD dual staining based flow cytometry (reference value: 1.72 to 3.25%); format: functional

- IC50 (K562): 80.7 µM
- IC50 (Jurkat): 8.7 µM
Compound: COc1ccc2[nH]cc(CCn3nnc4c3C(C)(C)[C@@H]3CC[C@]5(C)[C@H](CC=C6[C@@H]7CC(C)(C)CC[C@]7(C(=O)O)CC[C@]65C)[C@@]3(C)C4)c2c1
- Activity (HL-60 [1]): 14.7%
- Activity (HL-60 [2]): 68.9%
- Activity (HL-60 [3]): 3.91%
- Activity (HL-60 [4]): 0.628%
- fold change (FC) (HL-60 [5]): 2
- Activity (HL-60 [6]): 67.5%
- Activity (HL-60 [7]): 82.1%
- Activity (HL-60 [8]): 24.83%
- Activity (HL-60 [9]): 11.39%
- fold change (FC) (HL-60 [10]): 1.49
- Activity (HL-60 [11]): 5.02%
- IC50 (LN-229): 44.1 µM
- Activity (HL-60 [12]): 6.26%
- Activity (HL-60 [13]): 33.9%
- Activity (HL-60 [14]): 13.7%
- Activity (HL-60 [15]): 3.16%
- Activity (HL-60 [16]): 8.13%
